Assay results from paper PMC10746280, “Bacterial efflux pump modulators prevent bacterial growth in macrophages and under broth conditions that mimic the host environment” (mBio, 2023).

Experiments:
[1] = system: S. Typhimurium SL1344 (sifB::gfp) in RAW 264.7 macrophages; assay: SAFIRE macrophage assay: intracellular bacterial load (GFP signal within macrophages); assay type: cell-based, Salmonella enterica serotype Typhimurium; conditions: for IC50: Salmonella enterica, TYPHIMURIUM, RAW264.7, read-out: SAFIRE IC50
From the text: (§1) In SAFIRE, we used MATLAB software to count the number of macrophages that remain adherent and retain the red fluorescence of MitoTracker, an indicator of voltage across the mitochondrial inner membrane. MATLAB then calculates the signal from bacteria (green fluorescent protein [GFP]) that overlaps with macrophages, as defined by MitoTracker, to estimate bacterial load. […] For example, we observed that the 6-trifluoropyrimidin-2-yl group on the right-hand side of EPM35 is apparently toxic to macrophages. Non-toxic analogs that reduced bacterial load by at least 60% at 5 µM and 25 µM in SAFIRE, as compared with DMSO, progressed and were evaluated in SAFIRE across eight or more concentrations, ranging from 0.001 µM to 50 µM (n = 2). […] Each of the top 13 analogs had at least an eightfold increase in potency and were not toxic for macrophages at 50 µM in the SAFIRE assay (Fig. 1C).
(§2) As previously described ([18]), RAW 264.7 macrophages (between passages 1 and 6) were grown in complete Dulbecco’s modified Eagle’s medium (DMEM) to approximately 70% to 90% confluence, scraped, washed, resuspended, diluted to 5 × 10^4 in 100 µL, and seeded in black, 96-well, glass-bottomed plates (Brooks Life Sciences catalog number MGB096-1-2-LG-L) at 37°C with 5% CO2. Twenty-four hours later, bacteria grown overnight in LB were diluted into 50 µL phosphate buffered saline (PBS) and added to a final concentration of 1 × 10^7 S. Typhimurium SL1344 (sifB::gfp) per milliliter ([78]) for an approximate multiplicity of infection of 30 bacteria per macrophage cell. Forty-five minutes after bacterial addition, gentamicin (Sigma catalog number G1264) was added to a final concentration of 40 µg/mL to inhibit the growth of remaining extracellular bacteria. Two hours after infection, gentamicin-containing medium was removed and replaced with 200 µL fresh DMEM with compound or DMSO (Sigma catalog number 276855) to the stated final concentrations. At 17.5 h after infection, PBS containing MitoTracker Red CMXRos (Life Technologies catalog number M7512), a vital dye for mitochondrial electric potential, was added to a final concentration of 100 nM. At 18 h after infection, 16% paraformaldehyde was added to a final concentration of 4% and incubated at room temperature for 15 min. Cells were washed twice with PBS and stained for 20 min with 1 µM 4′,6-diamidino-2-phenylindole (DAPI), a vital dye for double-stranded DNA, and stored in 90% glycerol in PBS until imaging. Samples were imaged in six fields of view per well using a semiautomated Yokogawa CellVoyager CV1000 confocal scanner system with a 20×, 0.75-numerical aperture (NA) objective. A MATLAB algorithm calculated bacterial accumulation (GFP fluorescence) within macrophages, as defined by DAPI and MitoTracker Red. GFP^+ macrophage area was defined as the number of GFP-positive pixels per macrophage divided by the total number of pixels per macrophage, averaged across all macrophages in the field ([34]).

[2] = system: RAW 264.7 macrophages; assay: SAFIRE macrophage assay: host toxicity (adherent macrophage count, morphology); assay type: cell-based
From the text: as §1, §2

[3] = 5 uM, 'Toxic' given instead of a score
[4] = 25 uM, 'Toxic' given instead of a score
[5] = 5 uM compound, n=1, DMSO solvent control = 98, rifampicin 2 μg/mL = 65
[6] = 25 uM compound, n=1, DMSO solvent control = 98, rifampicin 2 μg/mL = 65
[7] = 5 uM compound, n=1, DMSO solvent control = 100
[8] = 25 uM compound, n=1, DMSO solvent control = 100

Structure (SMILES) | 5 uM Avg Antibacterial Score [1, 3] | 25 uM Avg Antibacterial Score [1, 4] | 5 uM Avg Cell # Score ([2]; 5 uM) | 25 uM Avg Cell # Score ([2]; 25 uM) | 5 uM Avg Antibacterial Score [1, 5] | 25 uM Avg Antibacterial Score [1, 6] | IC50 [1] [nM] | 5 uM Avg Cell # Score [2, 7] | 25 uM Avg Cell # Score [2, 8] | Avg Antibact Score ([1]; control, rifampicin 2 μg/mL, DMSO = 98) | Avg Cell # Score ([2]; control, rifampicin 2 μg/mL, DMSO = 100)
O=C(C1CCN(CC(O)COc2ccc(Cl)c(Cl)c2)CC1)N1CCCC1 (centres unmarked) [CU062] | 95 | 48 | 103 | 145 |  |  |  |  |  |  | 
OC(COc1ccc(Cl)cc1Cl)CN1CCC(Nc2nccc(C(F)(F)F)n2)C1 (centres unmarked) [CU087] | 36 | Toxic | 98 | 78 |  |  |  |  |  |  | 
OC(COc1ccccc1)CN1CCC(Nc2nccs2)CC1 (centres unmarked) [CU052] | 106 | 93 | 110 | 165 |  |  |  |  |  |  | 
O=C(CCOc1ccc(Cl)c(Cl)c1)N1CCC(Nc2nccc(C(F)(F)F)n2)CC1 [CU110] | 107 | Toxic | 79 | 27 |  |  |  |  |  |  | 
O[C@H](COc1ccc(Cl)c(Cl)c1)CN1CCC(Nc2nccc(C(F)(F)F)n2)CC1 [CU137] | 5.37 | Toxic | 91 | 67 |  |  |  |  |  |  | 
OC(COc1cccc2ccccc12)CN1CCC(Nc2nccc(C(F)(F)F)n2)CC1 (centres unmarked) [CU079] | 6.41 | Toxic | 86 | 89 |  |  |  |  |  |  | 
NC(=O)N1CCN(CC(O)COc2ccc(Cl)c(Cl)c2)CC1 (centres unmarked) [CU067] | 104 | 101 | 79 | 88 |  |  |  |  |  |  | 
CO[C@@H]1CCN(CC(O)COc2ccc(Cl)c(Cl)c2)C1 (some centres unmarked) [CU127] | 97 | 46 | 92 | 85 |  |  |  |  |  |  | 
N[C@H]1CCN(C[C@@H](O)COc2ccc(Cl)c(Cl)c2)C1 [CU240] |  |  |  |  | 29 | 10 | 9.1 | 118 | 105 |  | 
COc1ccc(OCC(O)CN2CCC(Nc3ncccn3)CC2)cc1 (centres unmarked) [CU046] | 103 | 75 | 74 | 173 |  |  |  |  |  |  | 
OC(COc1ccccc1Cl)CN1CCC(Nc2nccc(C(F)(F)F)n2)CC1 (centres unmarked) [CU040] | 109 | 19 | 84 | 114 |  |  |  |  |  |  | 
CNC1CCN(CC(O)COc2ccc(F)c(F)c2)C1 (centres unmarked) [CU176] | 83 | 58 | 102 | 111 |  |  |  |  |  |  | 
CC(=O)N(C)C1CCN(CC(O)COc2ccc(Cl)c(Cl)c2)CC1 (centres unmarked) [CU064] | 106 | 90 | 86 | 82 |  |  |  |  |  |  | 
OC(CNCc1cccc2ccccc12)COc1ccc(Cl)c(Cl)c1 (centres unmarked) [CU133] | 60 | Toxic | 84 | 92 |  |  |  |  |  |  | 
CCN(CC(O)COc1ccc(Cl)c(Cl)c1)CC1CCOC1 (centres unmarked) [CU123] | 98 | 28 | 85 | 84 |  |  |  |  |  |  | 
NC1CCN(CC(O)COc2ccc(Cl)cc2Cl)CC1 (centres unmarked) [CU190] | 24 | 21 | 101 | 87 |  |  |  |  |  |  | 
OC(COc1cccc2[nH]ccc12)CN1CCC(Nc2nccc(C(F)(F)F)n2)CC1 (centres unmarked) [CU116] | 90 | 6.41 | 99 | 94 |  |  |  |  |  |  | 
OC(COc1cc(Cl)cc(Cl)c1)CN1CCC(n2ccnc2)CC1 (centres unmarked) [CU234] |  |  |  |  | 40 | 12 |  | 134 | 108 |  | 

Structure (SMILES) | 5 uM Avg Antibacterial Score [1, 3] | 25 uM Avg Antibacterial Score [1, 4] | 5 uM Avg Cell # Score ([2]; 5 uM) | 25 uM Avg Cell # Score ([2]; 25 uM) | 5 uM Avg Antibacterial Score [1, 5] | 25 uM Avg Antibacterial Score [1, 6] | IC50 [1] [nM] | 5 uM Avg Cell # Score [2, 7] | 25 uM Avg Cell # Score [2, 8] | Avg Antibact Score ([1]; control, rifampicin 2 μg/mL, DMSO = 98) | Avg Cell # Score ([2]; control, rifampicin 2 μg/mL, DMSO = 100)
OC(COc1ccc(Cl)c(Cl)c1)CN1CCC2(CCO2)CC1 (centres unmarked) [CU229] | 101 | 83 | 147 | 141 |  |  |  |  |  |  | 
OC(COc1cc(F)cc(Br)c1)CN1CCC(Nc2nccc(C(F)(F)F)n2)CC1 (centres unmarked) [CU119] | 13 | Toxic | 72 | 50 |  |  |  |  |  |  | 
O[C@@H](COc1ccc(Cl)c(Cl)c1)CN1CCCC1 [CU254] |  |  |  |  | 89 | 51 |  | 119 | 125 |  | 
OC(COc1ccc(Cl)c(Cl)c1)CN1CCn2c([3F])nnc2C1 (centres unmarked) [CU157] | 115 | 109 | 109 | 106 |  |  |  |  |  |  | 
CSc1ccc(OCC(O)CN2CCC(Nc3nccc(C(F)(F)F)n3)CC2)cc1 (centres unmarked) [CU147] | 72 | Toxic | 121 | 43 |  |  |  |  |  |  | 
NC1CCN(CC(O)COc2cc(Cl)cc(Cl)c2)CC1 (centres unmarked) [CU191] | 14 | Toxic | 100 | 15 |  |  |  |  |  |  | 
OC(COc1ccc2c(c1)OCO2)CN1CCC(Nc2nccc(C(F)(F)F)n2)CC1 (centres unmarked) [CU080] | 96 | 7.4 | 86 | 91 |  |  |  |  |  |  | 
N#Cc1ccc(OCC(O)CN2CCC(N)C2)cc1 (centres unmarked) [CU154] | 112 | 111 | 99 | 123 |  |  |  |  |  |  | 
CN(CC(O)COc1ccc(Cl)c(Cl)c1)C1CCNCC1 (centres unmarked) [CU177] | 45 | 16 | 101 | 96 |  |  |  |  |  |  | 
OC(COc1ccc2c(c1)OCO2)CN1CCC(Nc2nccc(C(F)(F)F)n2)C1 (centres unmarked) [CU099] | 104 | 25 | 77 | 102 |  |  |  |  |  |  | 
NC1CCN(CC(O)COc2ccc(F)c(F)c2)CC1 (centres unmarked) [CU171] | 61 | 45 | 108 | 96 |  |  |  |  |  |  | 
OC(COc1ccc(Cl)cc1Cl)CN1CCC(Nc2nccc(C(F)(F)F)n2)CC1 (centres unmarked) [CU038] | 95 | Toxic | 85 | 181 |  |  |  |  |  |  | 
COCCCN(C)C1CCN(CC(O)COc2ccc(Cl)c(Cl)c2)CC1 (centres unmarked) [CU210] | 54 | 8 | 131 | 112 |  |  | 6 |  |  |  | 
CO[C@H]1/C=C/O[C@@]2(C)Oc3c(C)c(O)c4c(O)c(c(/C=N/N5CCN(C)CC5)c(O)c4c3C2=O)NC(=O)/C(C)=C\C=C\[C@H](C)[C@H](O)[C@@H](C)[C@@H](O)[C@@H](C)[C@H](OC(C)=O)[C@@H]1C [Rifampicin] |  |  |  |  |  |  |  |  |  | 65 | 111
OC(COc1ccc(Cl)c(Cl)c1)CN1CCOC2(CCOCC2)C1 (centres unmarked) [CU027] | 107 | 95 | 58 | 104 |  |  |  |  |  |  | 
OC(COc1cnsn1)CN1CCC(Nc2nccc(C(F)(F)F)n2)CC1 (centres unmarked) [CU118] | 102 | 80 | 89 | 124 |  |  |  |  |  |  | 
CN(CC(O)COc1ccc(Cl)c(Cl)c1)C1CCNC1 (centres unmarked) [CU143] | 84 | 55 | 113 | 117 |  |  |  |  |  |  | 
